# Assay results as given in PubChem BioAssay (NCI).
#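 Cultured in 96-well plates, cells were exposed to test compound for 48 hours across five concentrations. The concentration for 50% growth inhibition is given as GI50. The concentration for full growth arrest is given as TGI.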
# What was measured:
# Test in all cases: inhibition of tumour cell growth, NCI panel, 48 h
# [1] = tested on: NCI/ADR-RES ovarian
# [2] = tested on: LOX IMVI melanoma
# [3] = tested on: U251 CNS
# [4] = tested on: MALME-3M melanoma
# [5] = tested on: RPMI-8226 leukemia
# [6] = tested on: MDA-MB-231 breast
# [7] = tested on: MCF7 breast
# [8] = tested on: A498 renal
# [9] = tested on: HCT-15 colon
# [10] = tested on: HL-60(TB) leukemia
# [11] = tested on: ACHN renal
# [12] = tested on: SF-295 CNS
# [13] = tested on: OVCAR-3 ovarian
# [14] = tested on: T-47D breast
# [15] = tested on: MOLT-4 leukemia
# [16] = tested on: DU-145 prostate
# [17] = tested on: HOP-92 NSCLC
# [18] = tested on: IGROV1 ovarian
# [19] = tested on: SW-620 colon
# [20] = tested on: NCI-H460 lung
# [21] = tested on: NCI-H23 lung
# [22] = tested on: K-562 leukemia
# [23] = tested on: SK-MEL-5 melanoma
# [24] = tested on: CAKI-1 renal
# [25] = tested on: EKVX NSCLC
# [26] = tested on: MDA-MB-435
# [27] = tested on: OVCAR-5 ovarian
# [28] = tested on: RXF 393 renal
# [29] = tested on: SF-539 CNS
smiles,measurement,setting,value
CC(=O)Oc1ccccc1C(=O)Nc1cc(C(C)C)ccc1C,GI50,[1],3.74 µM
same,TGI,[1],24.8 µM
same,GI50,[2],3.94 µM
same,TGI,[2],15.2 µM
same,GI50,[3],4.07 µM
same,TGI,[3],28.5 µM
same,GI50,[4],2.97 µM
same,TGI,[4],15.1 µM
same,GI50,[5],3.9 µM
same,TGI,[5],> 100 µM
same,GI50,[6],9.92 µM
same,TGI,[6],50.4 µM
same,GI50,[7],3.83 µM
same,TGI,[7],42.2 µM
same,GI50,[8],5.22 µM
same,TGI,[8],33.8 µM
same,GI50,[9],4.13 µM
same,TGI,[9],16.3 µM
same,GI50,[10],4.66 µM
same,TGI,[10],38.3 µM
same,GI50,[11],4.43 µM
same,TGI,[11],51.1 µM
same,GI50,[12],4.46 µM
same,TGI,[12],18.8 µM
same,GI50,[13],4.38 µM
same,TGI,[13],> 100 µM
same,GI50,[14],2.62 µM
same,TGI,[14],> 100 µM
same,GI50,[15],4.2 µM
same,TGI,[15],29.7 µM
same,GI50,[16],8.38 µM
same,TGI,[16],> 100 µM
same,GI50,[17],2.54 µM
same,TGI,[17],8.4 µM
same,GI50,[18],4.44 µM
same,TGI,[18],45.7 µM
same,GI50,[19],9.34 µM
same,TGI,[19],28.5 µM
same,GI50,[20],3.99 µM
same,TGI,[20],> 100 µM
same,GI50,[21],2.71 µM
same,TGI,[21],9.84 µM
same,GI50,[22],3.8 µM
same,TGI,[22],56.5 µM
same,GI50,[23],2.27 µM
same,TGI,[23],5.74 µM
same,GI50,[24],4.5 µM
same,TGI,[24],27.9 µM
same,GI50,[25],3.94 µM
same,TGI,[25],30 µM
same,GI50,[26],4.08 µM
same,TGI,[26],23.4 µM
same,GI50,[27],20.4 µM
same,TGI,[27],> 100 µM
same,GI50,[28],2.55 µM
same,TGI,[28],9.78 µM
same,GI50,[29],4.61 µM
same,TGI,[29],19 µM
